Source: patent US20230286983A1 (4E Therapeutics, Inc., priority 2020, published 2023)
“And” between values parts separate entries of the source, which are not always exact repeats. Equal entries are not always repeated. Where two headings read alike, the source gives them in different places.

Legend:
[1] = tested on: eIF4E phosphorylation at Serine 209 in Karpas 299; test: eIF4E phosphorylation in Karpas 299 cells (sandwich ELISA); type: cell-based; settings: Homo sapiens, read-out: Karpas 299 cell IC50
Experimental: The ability of MNK inhibitors described herein to inhibit eIF4E phosphorylation at Serine 209 in Karpas 299, Human Non-Hodgkin's Ki-positive Large Cell Lymphoma cell line was tested by sandwich enzyme linked immune-absorbance assay.

[2] = Pharmacokinetic study, 4ET-03-009 at 20 mg/kg oral; type: in vivo, CD-1 male mice; settings: for AUCinf/D / Cmax/D: dose normalized; for concentration at 0.083 hours / concentration at 0.25 hours / concentration at 0.5 hours / concentration at 1 hours / concentration at 2 hours / concentration at 4 hours / concentration at 6 hours / concentration at 8 hours / concentration at 24 hours: oral
Experimental: Compound 4ET-03-009 was dissolved in a 10% dimethylacetamide (DMA)/3000 polyethylene glycol (PEG) 300/400% propylene glycol (PG)/200% water solvent. […] Plasma was collected at indicated timepoints and plasma concentration of compound 4ET-03-009 was measured using liquid chromatography-mass spectrometry/mass spectrometry (LC-MS/MS). Results are presented in FIG. 1 and Tables 3, 4, and 5.
Compound 4ET-03-009 was dissolved in a 10% dimethylacetamide (DMA)/30% polyethylene glycol (PEG) 300/40% propylene glycol (PG)/20% water solvent. Dosing and assay were performed as described in Biological Example 2. Results are presented in FIG. 3 and Tables 7, 8, and 9, below.

p-eIF4E = test: Western blot of eIF4E and p-eIF4E in tissues, 4ET-03-009; type: in vivo, mice; settings: 10 mg/kg oral, 2 hours after dosing, vs vehicle
Experimental: In separate mice administered the same therapy, 2 hours after dosing tissues were harvested from the sciatic nerve, liver, brain, and DRG and homogenized, then subjected to Western blot analysis for eIF4E and p-eIF4E. Control mice administered only the solvent vehicle with no MNK inhibitor were also assayed. Amounts of p-eIF4E in each tissue based on the mean for all three mice administered the therapeutic and based on the mean for all three control mice are presented in FIG. 2, right panel. […] Units on the y-axis are % of signal standardized to the control.

eIF4E phosphorylation = test: In vivo eIF4E phosphorylation in different tissues (Western blot), 4ET-01-021; parameters: species or system mice; settings: PO 10 mg/kg
Source text: However, 4ET-01-021 minimally-inhibited phosphorylation of eIF4E in the brain, as determined by Western blot analysis of brain tissue from the cortex.

[3] = Brain to plasma ratio, 4ET-01-021 at 3.0 mg/kg PO; type: in vivo, male CD-1 mouse; settings: for concentration at 2 h: oral, 3 mg/kg
[4] = male, CD-1, mouse, plasma, po, 20 mg/kg, Mean (n = 3)
[5] = male, CD-1, mouse, plasma, po, 20 mg/kg, individual animals

With `Cc1cc(Nc2cc(NC(=O)C3CC3)ncn2)c(=O)n2c1C(=O)NC21CCOCC1` [Compound 4ET-03-009, N-(6-((8-Methyl-1,5-dioxo-1,2′,3′,5,5′,6′-hexahydro-2H-spiro[imidazo[1,5-a]pyridine-3,4′-pyran]-6-yl)amino)pyrimidin-4-yl)cyclopropanecarboxamide] the IC50 [1] was 6.2 nM, the “abnormal clinical symptoms during the study” value [2] was “No abnormal clinical symptoms were observed” and the “Plasma Conc. (per mouse n = 3)” value ([2]; 0.083 hours) was 384 ng/mL and 304 ng/mL. For the same compound, the “Plasma Conc. (per mouse n = 3)” value ([2]; 0.25 hours) was 529 ng/mL and 396 ng/mL, the “Plasma Conc. (per mouse n = 3)” value ([2]; 0.5 hours) was 607 ng/mL and 497 ng/mL and the “Plasma Conc. (per mouse n = 3)” value ([2]; 1 hours) was 561 ng/mL and 448 ng/mL. For the same compound, the “Plasma Conc. (per mouse n = 3)” value ([2]; 2 hours) was 372 ng/mL and 286 ng/mL, the “Plasma Conc. (per mouse n = 3)” value ([2]; 4 hours) was 144 ng/mL and 135 ng/mL and the “Plasma Conc. (per mouse n = 3)” value ([2]; 6 hours) was 71.3 ng/mL and 58.7 ng/mL. The “Plasma Conc. (per mouse n = 3)” value ([2]; 8 hours) was 51.4 ng/mL and 41.5 ng/mL, the “Plasma Conc. (per mouse n = 3)” value ([2]; 24 hours) was 2.01 ng/mL and 1.89 ng/mL and the Tlast ([2]; Mean (n = 3)) was 24.0 h. The t1/2 ([2]; Mean (n = 3)) was 3.55 h, the AUCinf/D ([2]; Mean (n = 3)) was 113 kg·h/kL and the Cmax/D ([2]; Mean (n = 3)) was 29.5 kg/kL. The AUC0-8 hours ([2]; individual animals) was 1847 ng·h/mL and 1501 ng·h/mL, the AUCinf ([2]; individual animals) was 2284 ng·h/mL and 1858 ng·h/mL and the AUClast ([2]; individual animals) was 2274 ng·h/mL and 1848 ng·h/mL. The Clast ([2]; individual animals) was 2.01 ng/mL and 1.89 ng/mL, the Cmax ([2]; individual animals) was 607 ng/mL and 497 ng/mL and the MRTinf ([2]; individual animals) was 3.53 h. For the same compound, the Tlast ([2]; individual animals) was 24.0 h, the t1/2 ([2]; individual animals) was 3.47 h and 3.61 h and the AUCinf/D ([2]; individual animals) was 131 kg·h/kL and 114 kg·h/kL and 92.9 kg·h/kL. For the same compound, the Cmax/D ([2]; individual animals) was 33.3 kg/kL and 30.4 kg/kL and 24.9 kg/kL, the Tmax ([2]; male, CD-1, mouse, plasma, individual animals) was 0.5 h and the concentration at 0.083 hours ([2]; male, CD-1, mouse, plasma, 20 mg/kg, 0.083 hours, mean n = 3, read-out: Plasma Conc. Mean) was 331 ng/mL. For the same compound, the concentration at 0.083 hours ([2]; male, CD-1, mouse, plasma, 20 mg/kg, 0.083 hours, read-out: Plasma Conc. (per mouse n = 3)) was 304 ng/mL, the concentration at 0.25 hours ([2]; male, CD-1, mouse, plasma, 20 mg/kg, 0.25 hours, mean n = 3, read-out: Plasma Conc. Mean) was 530 ng/mL and the concentration at 0.25 hours ([2]; male, CD-1, mouse, plasma, 20 mg/kg, 0.25 hours, read-out: Plasma Conc. (per mouse n = 3)) was 665 ng/mL. For the same compound, the concentration at 0.5 hours ([2]; male, CD-1, mouse, plasma, 20 mg/kg, 0.5 hours, mean n = 3, read-out: Plasma Conc. Mean) was 590 ng/mL, the concentration at 0.5 hours ([2]; male, CD-1, mouse, plasma, 20 mg/kg, 0.5 hours, read-out: Plasma Conc. (per mouse n = 3)) was 666 ng/mL and the concentration at 1 hours ([2]; male, CD-1, mouse, plasma, 20 mg/kg, 1 hours, mean n = 3, read-out: Plasma Conc. Mean) was 553 ng/mL. It also gave a concentration at 1 hours ([2]; male, CD-1, mouse, plasma, 20 mg/kg, 1 hours, read-out: Plasma Conc. (per mouse n = 3)) of 649 ng/mL, a concentration at 2 hours ([2]; male, CD-1, mouse, plasma, 20 mg/kg, 2 hours, mean n = 3, read-out: Plasma Conc. Mean) of 355 ng/mL and a concentration at 2 hours ([2]; male, CD-1, mouse, plasma, 20 mg/kg, 2 hours, read-out: Plasma Conc. (per mouse n = 3)) of 408 ng/mL. The concentration at 4 hours ([2]; male, CD-1, mouse, plasma, 20 mg/kg, 4 hours, mean n = 3, read-out: Plasma Conc. Mean) was 153 ng/mL, the concentration at 4 hours ([2]; male, CD-1, mouse, plasma, 20 mg/kg, 4 hours, read-out: Plasma Conc. (per mouse n = 3)) was 180 ng/mL and the concentration at 6 hours ([2]; male, CD-1, mouse, plasma, 20 mg/kg, 6 hours, mean n = 3, read-out: Plasma Conc. Mean) was 74.5 ng/mL. It also gave a concentration at 6 hours ([2]; male, CD-1, mouse, plasma, 20 mg/kg, 6 hours, read-out: Plasma Conc. (per mouse n = 3)) of 93.6 ng/mL, a concentration at 8 hours ([2]; male, CD-1, mouse, plasma, 20 mg/kg, 8 hours, mean n = 3, read-out: Plasma Conc. Mean) of 50.2 ng/mL and a concentration at 8 hours ([2]; male, CD-1, mouse, plasma, 20 mg/kg, 8 hours, read-out: Plasma Conc. (per mouse n = 3)) of 57.6 ng/mL. For the same compound, the concentration at 24 hours ([2]; male, CD-1, mouse, plasma, 20 mg/kg, 24 hours, mean n = 3, read-out: Plasma Conc. Mean) was 2.22 ng/mL, the concentration at 24 hours ([2]; male, CD-1, mouse, plasma, 20 mg/kg, 24 hours, read-out: Plasma Conc. (per mouse n = 3)) was 2.75 ng/mL and the concentration at 24 hours ([2]; male, CD-1, mouse, plasma, 20 mg/kg, Mean (n = 3), read-out: Clast) was 2.22 ng/mL. It also gave a concentration at 24 hours ([2]; male, CD-1, mouse, plasma, 20 mg/kg, individual animals, read-out: Clast) of 2.75 ng/mL, an AUC(0-inf) [2, 4] of 2260 ng·h/mL and an MRT inf [2, 4] of 3.59 h. It also gave a half-life [2, 4] of 3.6 h, an AUC(0-t) ([2]; male, CD-1, mouse, plasma, po, 20 mg/kg, Mean (n = 3), read-out: AUC0-8 hours) of 1830 ng·h/mL and an AUC(0-t) ([2]; male, CD-1, mouse, plasma, po, 20 mg/kg, Mean (n = 3), read-out: AUClast) of 2240 ng·h/mL. It also gave a Cmax ([2]; male, CD-1, mouse, plasma, po, 20 mg/kg, Mean (n = 3), read-out: Cmax) of 590 ng/mL, an AUC(0-inf) ([2]; male, CD-1, mouse, plasma, po, 20 mg/kg, for the study) of 2260 ng·h/mL and a Cmax ([2]; male, CD-1, mouse, plasma, po, 20 mg/kg, for the study, read-out: Cmax) of 1400 nM. The AUC(0-inf) [2, 5] was 2630 ng·h/mL, the MRT inf [2, 5] was 3.63 h and the half-life [2, 5] was 3.58 h. The AUC(0-t) ([2]; male, CD-1, mouse, plasma, po, 20 mg/kg, individual animals, read-out: AUC0-8 hours) was 2130 ng·h/mL, the AUC(0-t) ([2]; male, CD-1, mouse, plasma, po, 20 mg/kg, individual animals, read-out: AUClast) was 2610 ng·h/mL and the Cmax ([2]; male, CD-1, mouse, plasma, po, 20 mg/kg, individual animals, read-out: Cmax) was 666 ng/mL. The “p-eIF4E in sciatic nerve, liver, brain and DRG” value (p-eIF4E) was “significantly decreased peIF4E in all tissues assayed”.
In the case of `CCC1=CC2(CCC1)NC(=O)c1c(C)cc(Nc3cc(N)ncn3)c(=O)n12` (centres unmarked) [Compound 4ET-01-021, 6′-((6-Aminopyrimidin-4-yl)amino)-3-ethyl-8′-methyl-2′H-spiro[cyclohexane-1,3′-imidazo[1,5-a]pyridin]-2-ene-1′,5′-dione], the “eIF4E phosphorylation in the brain (cortex)” value (eIF4E phosphorylation) is reported as “minimally-inhibited”, the “eIF4E phosphorylation in DRGs, sciatic nerve, and spleen” value (eIF4E phosphorylation; 2 hours or 4 hours post dose) is reported as “significant inhibition of eIF4E phosphorylation” and the “Tissue Homogenate Concentration” value ([3]; 2 hr, Brain, individual) is reported as 17.6 ng/mL and 12.2 ng/mL. For the same compound, the “Plasma Concentration” value ([3]; 2 hr, Plasma, individual) was 462 ng/mL and 383 ng/mL, the Kp at 2 h ([3]; male, CD-1, mouse, 2 h post dosing, Brain, read-out: Mean tissue/plasma concentration ratio (B:P ratio)) was 0.142 and the concentration at 2 h ([3]; male, CD-1, mouse, brain homogenate, 2 h, Brain, read-out: Mean (brain homogenate)) was 14.8 ng/mL. The concentration at 2 h ([3]; male, CD-1, mouse, brain homogenate, 2 hr, Brain, individual, read-out: Tissue Homogenate Concentration) was 14.5 ng/mL, the concentration at 2 h ([3]; male, CD-1, mouse, brain, 2 h, Brain, read-out: Mean Tissue) was 59.1 ng/g and the concentration at 2 h ([3]; male, CD-1, mouse, plasma, 2 h, Plasma, read-out: Mean (plasma)) was 416 ng/mL. The concentration at 2 h ([3]; male, CD-1, mouse, plasma, 2 hr, Plasma, individual, read-out: Plasma Concentration) was 404 ng/mL.
